In brackets after ≈: the same amount, converted by molar mass. Where two headings read alike, the source gives them in different places.
Experiments:
[1] = TU solubility in various solubilizers; settings: testosterone undecanoate dissolved in the named vehicle
[2] = cited from earlier work
[3] = cited from earlier work; remark: listed apart in the source
[4] = 200 mg oral twice daily, cited from earlier work
plasma lipids = settings: interesterified with margarine, mild hypercholesteremia; cited from earlier work
[5] = test system: absorption of cholesterol; settings: 1 g ingested, meal containing 500 mg of cholesterol; cited from earlier work

| SMILES | TU Solubility (mg/g) at 37 C. [1] [mg/g] | also measured |
| --- | --- | --- |
| Cc1c(C)c2c(c(C)c1O)CCC(C)(CCCC(C)CCCC(C)CCCC(C)C)O2 (racemic) [dl-alpha-tocopherol] | 527 |  |
| CC(C)CCC[C@@H](C)[C@H]1CC[C@H]2[C@@H]3CC=C4C[C@@H](O)CC[C@]4(C)[C@H]3CC[C@]12C [Cholesterol] |  | water solubility [2]: ~0.01 µg/mL (≈ 0.0259 µM) |
| CCCCCCCC/C=C\CCCCCCCC(=O)OCC [Crodamol EO (ethyl oleate), ethyl oleate] | 221 |  |
| CCCCCCCCCCCCCC(=O)OC(C)C [Crodamol IPM (isopropyl myristate), isopropyl myristate] | 295 |  |
| CCCCCCCCCCCCCCCC(=O)OC(C)C [Crodamol IPP (isopropyl palmitate), isopropyl palmitate] | 215 |  |
| CCCCC/C=C\C/C=C\CCCCCCCC(=O)OCC [Ethyl linoleate] | 230 |  |
| CCCCCCCC/C=C\CCCCCCCC(=O)OCC(COC(=O)CCCCCCC/C=C\CCCCCCCC)OC(=O)CCCCCCC/C=C\CCCCCCCC [Glyceryl trioleate (Capmul GTO), Glyceryl trioleate] | 154 |  |
| CCCCC/C=C\C/C=C\CCCCCCCC(=O)O [Linoleic acid] | 391 |  |
| CC/C=C\C/C=C\C/C=C\CCCCCCCC(=O)O [Linolenic acid] | 162 |  |
| CN1CCCC1=O [N-methyl pyrolidone] | >500 |  |
| CCCCCCCC/C=C\CCCCCCCC(=O)O [Oleic acid] | 405 |  |
| CCCCCC[C@@H](O)C/C=C\CCCCCCCC(=O)O [Ricinoleic acid] | 244 |  |
| CCCCCCCCCCC(=O)O[C@H]1CC[C@H]2[C@@H]3CCC4=CC(=O)CC[C@]4(C)[C@H]3CC[C@]12C [TU, testosterone undecanoate] |  | oral bioavailability ([3]; dosed with normal fat meal (30% calories from fat), solution of TU in oleic acid): about 7%; fraction absorbed via the intestinal lymphatic system ([3]; in vivo): More than 80% |
| CCOCCOCCO [Transcutol HP, diethylene glycol monoethyl ether] | 180 |  |
| C[C@]12CC[C@H]3[C@@H](CCC4=CC(=O)CC[C@@]43C)[C@@H]1CC[C@@H]2O [micronized testosterone, testosterone] |  | time of total serum testosterone within the normal range ([4]; two doses): greater than 12 hours; time at desired level of serum testosterone for each peak [4]: about 4 hours |
| CC[C@H](CC[C@@H](C)[C@H]1CC[C@H]2[C@@H]3CC[C@H]4C[C@@H](O)CC[C@]4(C)[C@H]3CC[C@]12C)C(C)C [sitostanol] |  | mean 1-year reduction in plasma cholesterol (plasma lipids): 10.2% |
| C[C@]12CC[C@H]3[C@@H](CCC4=CC(=O)CC[C@@]43C)[C@@H]1CC[C@@H]2O [testosterone] |  | oral bioavailability ([3]; dosed as a suspension in oil): 1%; circulating fraction bound to sex hormone binding globulin and albumin ([3]; in vivo): > 98%; plasma half-life ([3]; in vivo): 10 to 30 min |
| CC[C@H](CC[C@@H](C)[C@H]1CC[C@H]2[C@@H]3CC=C4C[C@@H](O)CC[C@]4(C)[C@H]3CC[C@]12C)C(C)C [ß-sitosterol] |  | reduction of absorption of cholesterol [5]: 42% |

Source: patent publication US11617758B2, “Emulsion formulations” (Marius Pharmaceuticals LLC, priority 2013, dated 2023)
